Reference: US5202434A, “8a-aza-8a-homoerythromycin lactams” (Merck & Co., Inc., priority 1992, dated 1993)
≈ marks a conversion by molar mass, not a printed value.

Key:
Experiment in all cases: MIC, liquid turbidimetric microtiter broth method
Format in all cases: cell-based
[1] = system: Steptococcus pneumoniae CL 2883
Description: (§1) The compounds of formula (II) will show antibacterial activity against a range of aerobic Gram positive and negative bacteria as shown in the following Table. The assay employs a liquid turbidimetric microtiter method for determination of the minimum inhibitory concentration (MIC) in broth media. […] The MIC is generally not an absolute value but rather a concentration range that falls within a two-fold dilution limit. Generally, twelve two-fold dilutions of the test compound are employed with the initial concentration set at 128 mcg/ml.

[2] = system: Streptococcus viridans CL 2943; details: CL2943
Description: as §1

Escherichia coli MB 4926 = details: MB4926
Description: as §1

MIC [1]: ≤ 0.06 µg/mL
MIC [2]: 4 µg/mL (≈ 5.34 µM)
MIC (Escherichia coli MB 4926): 4 µg/mL (≈ 5.34 µM)
Structure (SMILES): CC[C@H]1OC(=O)[C@H](C)[C@@H](O[C@H]2C[C@@](C)(OC)[C@@H](O)[C@H](C)O2)[C@H](C)[C@@H](O[C@@H]2O[C@H](C)C[C@H](N(C)C)[C@H]2O)[C@](C)(O)C[C@@H](C)NC(=O)[C@H](C)[C@@H](O)[C@]1(C)O [8aaza-8a-homoerythromycin A, 8a-Aza-8a-homoerythromycin A]
